# Results taken from the kinase profiling compilation of Christmann-Franck et al. (2016).
# Assays:
# Experiment in all cases: radiometric filter-binding kinase assay, Kinase HotSpot
# Settings in all cases: compound 0.5 µM; ATP 10 µM
# PRKACA (human) = PRKACA (human) (UniProt P17612)
# PKN2 (human) = PKN2 (human) (UniProt Q16513)
# CDK5 CDK5R1 p35 (human) = CDK5 CDK5R1 p35 (human) (UniProt Q00535+Q15078)
# FGFR4 (human) = FGFR4 (human) (UniProt P22455)
# ACVR1B (human) = ACVR1B (human) (UniProt P36896)
# MAP3K9 (human) = MAP3K9 (human) (UniProt P80192)
# ITK (human) = ITK (human) (UniProt Q08881)
# CAMKK2 (human) = CAMKK2 (human) (UniProt Q96RR4)
# CSNK1G2 (human) = CSNK1G2 (human) (UniProt P78368)
# TAOK3 (human) = TAOK3 (human) (UniProt Q9H2K8)
# MARK1 (human) = MARK1 (human) (UniProt Q9P0L2)
# SRMS (human) = SRMS (human) (UniProt Q9H3Y6)
# STK39 (human) = STK39 (human) (UniProt Q9UEW8)
# CHUK (human) = CHUK (human) (UniProt O15111)
# DYRK4 (human) = DYRK4 (human) (UniProt Q9NR20)
# PHKG1 (human) = PHKG1 (human) (UniProt Q16816)
# DYRK3 (human) = DYRK3 (human) (UniProt O43781)
# SRPK2 (human) = SRPK2 (human) (UniProt P78362)
# MST4 (human) = MST4 (human) (UniProt Q9P289)
# DSTYK (human) = DSTYK (human) (UniProt Q6XUX3)
# ROCK1 (human) = ROCK1 (human) (UniProt Q13464)
# INSRR (human) = INSRR (human) (UniProt P14616)
# CSK (human) = CSK (human) (UniProt P41240)
# TTK (human) = TTK (human) (UniProt P33981)
# DYRK1A (human) = DYRK1A (human) (UniProt Q13627)
# PRKD1 (human) = PRKD1 (human) (UniProt Q15139)
# GRK5 (human) = GRK5 (human) (UniProt P34947)
# HCK (human) = HCK (human) (UniProt P08631)
# CSNK2A1 (human) = CSNK2A1 (human) (UniProt P68400)
# CLK3 (human) = CLK3 (human) (UniProt P49761)
# SYK (human) = SYK (human) (UniProt P43405)
# CDK9 CCNK (human) = CDK9 CCNK (human) (UniProt O75909+P50750)
# PTK2B (human) = PTK2B (human) (UniProt Q14289)
# MLTK (human) = MLTK (human) (UniProt Q9NYL2)
# RAF1 (human) = RAF1 (human) (UniProt P04049)
# DAPK3 (human) = DAPK3 (human) (UniProt O43293)
# AURKB (human) = AURKB (human) (UniProt Q96GD4)
# LRRK2 (human) = LRRK2 (human) (UniProt Q5S007)
# PRKD2 (human) = PRKD2 (human) (UniProt Q9BZL6)
# CDK6 CCND3 (human) = CDK6 CCND3 (human) (UniProt P30281+Q00534)
# STK11 (human) = STK11 (human) (UniProt Q15831)
# [1] = target: JAK1 JH1 catalytic (human) (UniProt P23458)
# Chain of PRKD1 (human) (Q15139 whole entry, looked up): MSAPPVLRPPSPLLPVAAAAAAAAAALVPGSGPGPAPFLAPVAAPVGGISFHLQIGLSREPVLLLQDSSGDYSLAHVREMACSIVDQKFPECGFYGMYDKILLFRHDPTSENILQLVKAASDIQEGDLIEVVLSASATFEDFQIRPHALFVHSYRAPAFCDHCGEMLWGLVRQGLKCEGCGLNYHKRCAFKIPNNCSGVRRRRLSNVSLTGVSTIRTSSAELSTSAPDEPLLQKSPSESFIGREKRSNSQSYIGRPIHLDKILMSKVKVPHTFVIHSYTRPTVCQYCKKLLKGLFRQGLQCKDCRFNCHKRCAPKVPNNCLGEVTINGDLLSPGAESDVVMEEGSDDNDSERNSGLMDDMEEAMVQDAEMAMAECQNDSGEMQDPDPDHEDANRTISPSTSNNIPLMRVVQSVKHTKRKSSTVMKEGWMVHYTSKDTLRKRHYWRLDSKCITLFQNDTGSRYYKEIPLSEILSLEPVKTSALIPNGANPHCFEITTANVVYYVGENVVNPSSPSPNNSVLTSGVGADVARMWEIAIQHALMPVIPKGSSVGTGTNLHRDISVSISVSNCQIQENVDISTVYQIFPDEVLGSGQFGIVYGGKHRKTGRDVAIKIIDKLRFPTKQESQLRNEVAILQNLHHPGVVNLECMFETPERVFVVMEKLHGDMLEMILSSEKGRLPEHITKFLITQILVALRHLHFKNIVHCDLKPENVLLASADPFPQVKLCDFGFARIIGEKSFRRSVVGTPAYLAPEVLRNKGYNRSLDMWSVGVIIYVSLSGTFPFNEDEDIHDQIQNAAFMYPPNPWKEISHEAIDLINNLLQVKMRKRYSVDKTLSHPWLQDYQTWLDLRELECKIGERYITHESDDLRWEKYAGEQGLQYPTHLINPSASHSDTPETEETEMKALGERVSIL
# Chain of PKN2 (human) (Q16513 whole entry, looked up): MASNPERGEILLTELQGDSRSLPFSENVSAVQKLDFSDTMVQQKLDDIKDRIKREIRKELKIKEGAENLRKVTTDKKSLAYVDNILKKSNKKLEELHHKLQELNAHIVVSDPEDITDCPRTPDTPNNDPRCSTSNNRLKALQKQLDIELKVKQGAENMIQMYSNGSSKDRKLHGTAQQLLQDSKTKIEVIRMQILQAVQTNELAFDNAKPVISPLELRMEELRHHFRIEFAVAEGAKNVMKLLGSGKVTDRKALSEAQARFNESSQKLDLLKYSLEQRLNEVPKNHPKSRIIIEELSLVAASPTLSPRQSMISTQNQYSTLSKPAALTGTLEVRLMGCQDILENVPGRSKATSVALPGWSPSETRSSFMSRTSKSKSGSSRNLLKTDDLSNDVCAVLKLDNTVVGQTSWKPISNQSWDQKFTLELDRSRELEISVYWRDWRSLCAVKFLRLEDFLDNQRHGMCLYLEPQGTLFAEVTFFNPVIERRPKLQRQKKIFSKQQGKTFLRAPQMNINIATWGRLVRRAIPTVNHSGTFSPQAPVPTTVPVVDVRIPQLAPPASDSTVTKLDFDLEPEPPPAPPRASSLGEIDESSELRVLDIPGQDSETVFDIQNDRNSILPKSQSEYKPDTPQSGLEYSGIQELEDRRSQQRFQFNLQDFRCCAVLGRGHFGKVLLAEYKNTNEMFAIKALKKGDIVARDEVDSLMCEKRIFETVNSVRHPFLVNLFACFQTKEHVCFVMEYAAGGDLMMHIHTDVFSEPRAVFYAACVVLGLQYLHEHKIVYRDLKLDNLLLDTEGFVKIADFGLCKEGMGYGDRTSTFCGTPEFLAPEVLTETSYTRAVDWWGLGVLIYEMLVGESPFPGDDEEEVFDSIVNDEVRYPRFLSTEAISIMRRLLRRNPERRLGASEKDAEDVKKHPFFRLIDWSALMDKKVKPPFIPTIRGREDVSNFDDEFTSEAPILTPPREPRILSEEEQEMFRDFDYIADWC
# Chain of AURKB (human) (Q96GD4 whole entry, looked up): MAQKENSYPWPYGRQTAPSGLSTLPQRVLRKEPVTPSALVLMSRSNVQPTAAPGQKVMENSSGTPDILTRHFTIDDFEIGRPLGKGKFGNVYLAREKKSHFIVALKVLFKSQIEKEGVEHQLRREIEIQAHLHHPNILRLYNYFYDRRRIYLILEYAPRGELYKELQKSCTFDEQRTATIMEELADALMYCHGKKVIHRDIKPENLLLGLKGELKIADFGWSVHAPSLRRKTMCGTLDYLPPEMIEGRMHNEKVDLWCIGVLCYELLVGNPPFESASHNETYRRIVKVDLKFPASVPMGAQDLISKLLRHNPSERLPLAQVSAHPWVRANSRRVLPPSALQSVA
# Chain of STK11 (human) (Q15831 whole entry, looked up): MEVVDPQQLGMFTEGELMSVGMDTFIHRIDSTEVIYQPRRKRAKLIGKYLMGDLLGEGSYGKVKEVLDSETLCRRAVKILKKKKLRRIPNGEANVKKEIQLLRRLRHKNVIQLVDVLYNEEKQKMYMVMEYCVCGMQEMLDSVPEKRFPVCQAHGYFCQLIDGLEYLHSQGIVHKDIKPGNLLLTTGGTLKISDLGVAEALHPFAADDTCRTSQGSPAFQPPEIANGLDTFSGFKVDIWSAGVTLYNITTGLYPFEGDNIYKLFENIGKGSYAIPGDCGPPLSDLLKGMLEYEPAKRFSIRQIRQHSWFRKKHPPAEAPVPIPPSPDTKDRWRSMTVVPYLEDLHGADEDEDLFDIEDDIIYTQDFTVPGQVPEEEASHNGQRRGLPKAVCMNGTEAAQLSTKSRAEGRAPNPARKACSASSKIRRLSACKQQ
# Chain of CSK (human) (P41240 whole entry, looked up): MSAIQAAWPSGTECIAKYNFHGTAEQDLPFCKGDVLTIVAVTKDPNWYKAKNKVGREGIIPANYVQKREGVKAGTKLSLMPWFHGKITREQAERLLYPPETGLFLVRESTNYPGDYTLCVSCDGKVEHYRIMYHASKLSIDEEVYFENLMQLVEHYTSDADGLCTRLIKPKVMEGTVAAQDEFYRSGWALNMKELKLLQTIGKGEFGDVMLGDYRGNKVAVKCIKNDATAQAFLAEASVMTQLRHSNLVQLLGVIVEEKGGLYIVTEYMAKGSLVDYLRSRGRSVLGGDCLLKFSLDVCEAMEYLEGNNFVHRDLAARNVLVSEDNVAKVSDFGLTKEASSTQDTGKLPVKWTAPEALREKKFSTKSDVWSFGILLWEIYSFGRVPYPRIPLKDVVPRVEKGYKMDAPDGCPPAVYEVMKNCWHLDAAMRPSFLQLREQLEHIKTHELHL
# Chain of MARK1 (human) (Q9P0L2 whole entry, looked up): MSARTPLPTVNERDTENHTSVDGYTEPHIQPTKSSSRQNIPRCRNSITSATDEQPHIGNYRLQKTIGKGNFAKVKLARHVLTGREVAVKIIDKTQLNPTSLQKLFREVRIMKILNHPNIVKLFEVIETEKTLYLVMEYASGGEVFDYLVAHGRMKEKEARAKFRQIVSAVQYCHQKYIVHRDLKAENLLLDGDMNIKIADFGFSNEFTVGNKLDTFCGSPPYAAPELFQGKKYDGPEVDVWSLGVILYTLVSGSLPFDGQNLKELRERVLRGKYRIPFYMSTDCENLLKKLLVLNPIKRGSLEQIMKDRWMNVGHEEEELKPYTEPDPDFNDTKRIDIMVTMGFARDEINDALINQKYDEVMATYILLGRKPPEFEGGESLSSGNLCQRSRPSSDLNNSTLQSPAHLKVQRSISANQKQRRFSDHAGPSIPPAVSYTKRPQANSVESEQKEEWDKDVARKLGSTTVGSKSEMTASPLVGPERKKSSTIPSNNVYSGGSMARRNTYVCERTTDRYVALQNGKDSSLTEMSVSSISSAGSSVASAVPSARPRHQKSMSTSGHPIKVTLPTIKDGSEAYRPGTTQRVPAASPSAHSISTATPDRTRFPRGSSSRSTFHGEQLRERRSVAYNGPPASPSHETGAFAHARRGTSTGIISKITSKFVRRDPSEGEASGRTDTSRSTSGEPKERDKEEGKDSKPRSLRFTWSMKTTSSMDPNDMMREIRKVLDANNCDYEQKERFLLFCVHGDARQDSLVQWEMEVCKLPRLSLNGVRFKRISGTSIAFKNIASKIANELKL
# Chain of CHUK (human) (O15111 whole entry, looked up): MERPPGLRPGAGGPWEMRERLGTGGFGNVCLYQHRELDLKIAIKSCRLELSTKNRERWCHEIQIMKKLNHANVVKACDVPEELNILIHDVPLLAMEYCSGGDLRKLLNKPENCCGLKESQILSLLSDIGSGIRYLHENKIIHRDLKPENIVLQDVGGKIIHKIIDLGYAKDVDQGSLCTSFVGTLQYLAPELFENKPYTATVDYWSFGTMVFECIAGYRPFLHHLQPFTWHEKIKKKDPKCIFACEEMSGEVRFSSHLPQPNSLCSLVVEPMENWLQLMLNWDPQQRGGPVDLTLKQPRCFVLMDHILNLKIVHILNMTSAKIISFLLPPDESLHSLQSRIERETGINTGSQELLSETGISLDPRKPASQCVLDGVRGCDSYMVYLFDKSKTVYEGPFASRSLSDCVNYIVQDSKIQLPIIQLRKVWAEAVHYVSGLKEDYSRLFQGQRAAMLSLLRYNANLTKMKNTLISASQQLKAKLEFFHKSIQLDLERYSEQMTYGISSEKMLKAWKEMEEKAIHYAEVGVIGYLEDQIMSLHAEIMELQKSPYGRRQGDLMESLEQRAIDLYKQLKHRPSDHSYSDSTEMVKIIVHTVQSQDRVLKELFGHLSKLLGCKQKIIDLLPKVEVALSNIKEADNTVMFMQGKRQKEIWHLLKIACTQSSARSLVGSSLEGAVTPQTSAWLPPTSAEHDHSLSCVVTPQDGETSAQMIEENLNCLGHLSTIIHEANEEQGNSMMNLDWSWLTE
# Chain of PHKG1 (human) (Q16816 whole entry, looked up): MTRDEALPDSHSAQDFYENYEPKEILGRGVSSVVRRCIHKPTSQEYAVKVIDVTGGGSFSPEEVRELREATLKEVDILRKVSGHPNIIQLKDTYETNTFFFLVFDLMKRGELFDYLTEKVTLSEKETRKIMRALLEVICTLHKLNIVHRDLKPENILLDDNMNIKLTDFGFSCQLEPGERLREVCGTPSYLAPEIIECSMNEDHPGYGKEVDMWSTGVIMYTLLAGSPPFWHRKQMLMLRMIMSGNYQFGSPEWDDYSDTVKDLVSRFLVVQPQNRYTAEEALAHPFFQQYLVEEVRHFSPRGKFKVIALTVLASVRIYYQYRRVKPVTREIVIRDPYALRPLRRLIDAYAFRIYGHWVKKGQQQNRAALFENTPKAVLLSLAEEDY
structure (smiles),measurement,setting,value
O=c1cc(-c2cccc3c2Sc2ccccc2S3)oc(N2CCOCC2)c1,residual activity,PRKACA (human),99.6%
same,residual activity,PKN2 (human),72.9%
same,residual activity,CDK5 CDK5R1 p35 (human),99.5%
same,residual activity,FGFR4 (human),100%
same,residual activity,ACVR1B (human),114%
same,residual activity,MAP3K9 (human),95.5%
same,residual activity,ITK (human),96.6%
same,residual activity,CAMKK2 (human),133%
same,residual activity,CSNK1G2 (human),93.3%
same,residual activity,TAOK3 (human),115%
same,residual activity,MARK1 (human),100%
same,residual activity,SRMS (human),93.8%
same,residual activity,STK39 (human),84%
same,residual activity,CHUK (human),87.4%
same,residual activity,DYRK4 (human),105%
same,residual activity,PHKG1 (human),106%
same,residual activity,DYRK3 (human),84.3%
same,residual activity,SRPK2 (human),110%
same,residual activity,MST4 (human),90.4%
same,residual activity,DSTYK (human),93.4%
same,residual activity,ROCK1 (human),101%
same,residual activity,INSRR (human),98.7%
same,residual activity,CSK (human),95.7%
same,residual activity,TTK (human),106%
same,residual activity,DYRK1A (human),95%
same,residual activity,PRKD1 (human),90.3%
same,residual activity,GRK5 (human),105%
same,residual activity,HCK (human),102%
same,residual activity,CSNK2A1 (human),97.4%
same,residual activity,CLK3 (human),121%
same,residual activity,SYK (human),106%
same,residual activity,CDK9 CCNK (human),109%
same,residual activity,PTK2B (human),106%
same,residual activity,MLTK (human),100%
same,residual activity,RAF1 (human),94.7%
same,residual activity,DAPK3 (human),106%
same,residual activity,AURKB (human),95.8%
same,residual activity,LRRK2 (human),102%
same,residual activity,PRKD2 (human),105%
same,residual activity,CDK6 CCND3 (human),106%
same,residual activity,STK11 (human),96.5%
same,residual activity,[1],105%
O=C1Nc2cc(Br)ccc2/C1=C1/Nc2ccccc2/C1=N\O,residual activity,PRKACA (human),106%
same,residual activity,PKN2 (human),85.6%
same,residual activity,CDK5 CDK5R1 p35 (human),12.4%
same,residual activity,FGFR4 (human),79.6%
same,residual activity,ACVR1B (human),100%
same,residual activity,MAP3K9 (human),9.21%
same,residual activity,ITK (human),46.6%
same,residual activity,CAMKK2 (human),70.1%
same,residual activity,CSNK1G2 (human),105%
same,residual activity,TAOK3 (human),56.9%
same,residual activity,MARK1 (human),64.2%
same,residual activity,SRMS (human),99.6%
same,residual activity,STK39 (human),104%
same,residual activity,CHUK (human),104%
same,residual activity,DYRK4 (human),99.4%
same,residual activity,PHKG1 (human),41.8%
same,residual activity,DYRK3 (human),104%
same,residual activity,SRPK2 (human),63.9%
same,residual activity,MST4 (human),122%
same,residual activity,DSTYK (human),102%
same,residual activity,ROCK1 (human),99%
same,residual activity,INSRR (human),81%
same,residual activity,CSK (human),65.8%
same,residual activity,TTK (human),69.8%
same,residual activity,DYRK1A (human),101%
same,residual activity,PRKD1 (human),93.6%
same,residual activity,GRK5 (human),125%
same,residual activity,HCK (human),13.3%
same,residual activity,CSNK2A1 (human),82.2%
same,residual activity,CLK3 (human),71.2%
same,residual activity,SYK (human),45.7%
same,residual activity,CDK9 CCNK (human),37.5%
same,residual activity,PTK2B (human),56.7%
same,residual activity,MLTK (human),69%
same,residual activity,RAF1 (human),103%
same,residual activity,DAPK3 (human),84.9%
same,residual activity,AURKB (human),39.1%
same,residual activity,LRRK2 (human),95.3%
same,residual activity,PRKD2 (human),94.1%
same,residual activity,CDK6 CCND3 (human),25.4%
same,residual activity,STK11 (human),42.1%
same,residual activity,[1],76.2%
Cc1ccc(NC(=O)c2ccc(CN3CCN(C)CC3)cc2)cc1Nc1nc(-c2cccnc2)cs1,residual activity,PRKACA (human),104%
same,residual activity,PKN2 (human),108%
same,residual activity,CDK5 CDK5R1 p35 (human),100%
same,residual activity,FGFR4 (human),89.8%
same,residual activity,ACVR1B (human),99.8%
same,residual activity,MAP3K9 (human),104%
same,residual activity,ITK (human),98.7%
same,residual activity,CAMKK2 (human),101%
same,residual activity,CSNK1G2 (human),92.9%
same,residual activity,TAOK3 (human),95.4%
same,residual activity,MARK1 (human),86.9%
same,residual activity,SRMS (human),92.9%
same,residual activity,STK39 (human),94%
same,residual activity,CHUK (human),96.2%
same,residual activity,DYRK4 (human),100%
same,residual activity,PHKG1 (human),92.2%
same,residual activity,DYRK3 (human),108%
same,residual activity,SRPK2 (human),101%
same,residual activity,MST4 (human),97%
same,residual activity,DSTYK (human),92.4%
same,residual activity,ROCK1 (human),102%
same,residual activity,INSRR (human),102%
same,residual activity,CSK (human),104%
same,residual activity,TTK (human),112%
same,residual activity,DYRK1A (human),106%
same,residual activity,PRKD1 (human),98.2%
same,residual activity,GRK5 (human),106%
same,residual activity,HCK (human),55.7%
same,residual activity,CSNK2A1 (human),99.2%
same,residual activity,CLK3 (human),93.6%
same,residual activity,SYK (human),101%
same,residual activity,CDK9 CCNK (human),109%
same,residual activity,PTK2B (human),98.9%
same,residual activity,MLTK (human),86.8%
same,residual activity,RAF1 (human),77.5%
same,residual activity,DAPK3 (human),100%
same,residual activity,AURKB (human),99.5%
same,residual activity,LRRK2 (human),107%
same,residual activity,PRKD2 (human),98.2%
same,residual activity,CDK6 CCND3 (human),90.5%
same,residual activity,STK11 (human),102%
same,residual activity,[1],98.8%
Oc1ccc(-c2nc(-c3ccc(F)cc3)c(-c3ccncc3)[nH]2)cc1,residual activity,PRKACA (human),84.3%
same,residual activity,PKN2 (human),101%
same,residual activity,CDK5 CDK5R1 p35 (human),97.3%
same,residual activity,FGFR4 (human),92.9%
same,residual activity,ACVR1B (human),136%
same,residual activity,MAP3K9 (human),53.1%
same,residual activity,ITK (human),90.9%
same,residual activity,CAMKK2 (human),118%
same,residual activity,CSNK1G2 (human),91.9%
same,residual activity,TAOK3 (human),103%
same,residual activity,MARK1 (human),101%
same,residual activity,SRMS (human),102%
same,residual activity,STK39 (human),94.8%
same,residual activity,CHUK (human),107%
same,residual activity,DYRK4 (human),101%
same,residual activity,PHKG1 (human),94.2%
same,residual activity,DYRK3 (human),101%
same,residual activity,SRPK2 (human),102%
same,residual activity,MST4 (human),101%
same,residual activity,DSTYK (human),100%
same,residual activity,ROCK1 (human),101%
same,residual activity,INSRR (human),98%
same,residual activity,CSK (human),93.7%
same,residual activity,TTK (human),103%
same,residual activity,DYRK1A (human),99.6%
same,residual activity,PRKD1 (human),90.7%
same,residual activity,GRK5 (human),104%
same,residual activity,HCK (human),97.6%
same,residual activity,CSNK2A1 (human),92.4%
same,residual activity,CLK3 (human),101%
same,residual activity,SYK (human),101%
same,residual activity,CDK9 CCNK (human),101%
same,residual activity,PTK2B (human),96.2%
same,residual activity,MLTK (human),98.8%
same,residual activity,RAF1 (human),25.8%
same,residual activity,DAPK3 (human),100%
same,residual activity,AURKB (human),104%
same,residual activity,LRRK2 (human),95.8%
same,residual activity,PRKD2 (human),79.9%
same,residual activity,CDK6 CCND3 (human),104%
same,residual activity,STK11 (human),93.1%
same,residual activity,[1],102%
